The term IC50 denotes the concentration that gives 50% inhibition. Read a high IC50 as a need for much substance. What is called EC50 is the concentration that produces a half-maximal response.

Read-outs that look alike come from different tables or passages of the source. Where only a bound is given, the exact number is not on record here.

The source of these data is patent US10364256B2 (GlaxoSmithKline Intellectual Property Development Limited, priority 2015, dated 2019).

Assay [1] deals with T1, Keap1 Kelch domain (321-609) / TAMRA-labeled 16mer NRF2 peptide (ETGE motif) (Homo sapiens, UniProt Q14145).
T1 construct: the Kelch domain (321-609) of Keap1 is used
T1 sequence (Q14145 321-609): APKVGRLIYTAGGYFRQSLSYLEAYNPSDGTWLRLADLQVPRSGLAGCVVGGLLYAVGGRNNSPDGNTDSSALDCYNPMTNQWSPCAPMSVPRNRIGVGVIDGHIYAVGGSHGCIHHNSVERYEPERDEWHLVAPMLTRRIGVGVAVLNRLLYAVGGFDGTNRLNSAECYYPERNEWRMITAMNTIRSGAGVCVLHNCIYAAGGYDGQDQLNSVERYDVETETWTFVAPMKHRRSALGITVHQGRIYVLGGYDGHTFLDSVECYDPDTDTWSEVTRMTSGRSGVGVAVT
As to the kind of experiment: NRF2-Keap1 FP Assay (Keap1 Kelch fluorescence polarization). The format is binding. The note with it: 20 nM Keap1 (321-609), 8 nM Tamra labeled peptide. The procedure, abridged:
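Compound dilutions (3-fold) were incubated 1 hr at room temperature with 20 nM Keap1 Kelch (321-609) and 8 nM TAMRA-labeled ETGE 16mer peptide. Buffer was 50 mM Tris pH 8.0, 100 mM NaCl, 5 mM MgCl2, 1 mM DTT, 2 mM CHAPS, 0.005% BSA. Fluorescence polarization (mP) was normalized to controls and fitted with a four-parameter equation to give pIC50.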
A general note: In fluorescence polarisation assays a small probe gives low polarisation when free and higher when bound to something large.

Assay [2] has as its system NQO1 specific enzyme activity in BEAS-2B cells (marker for NRF2 activation). As to the kind of experiment: BEAS-2B NQO1 MTT Assay. The format is cell-based. The following applies: Homo sapiens, compound incubated 48 hours, read-out: EC50 (NQO1 specific enzyme activity induction). The procedure, abridged: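 NQO1 specific activity induction is derived from the rate of MTT reduction (ΔOD/min, 570 nm, 30 min kinetic read) in crude lysates of BEAS-2B cells exposed to compound for 48 h. A 3-parameter fit gives EC50, reported as pEC50; part of each lysate goes to Cell Titer Glo.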

Assay [3] has as its target T2, full length Keap1 protein / full length NRF2 protein (Homo sapiens, UniProt Q14145).
T2 construct: full length NRF2 protein and full length Keap1 protein (Keap1 exists a dimer) are used; His
In words: NRF2-Keap1 TR-FRET Low Protein Assay. The format is binding. The note with it: 1.25 nM Keap1 FlagHis and 2.5 nM biotin-NRF2 added. The procedure, abridged: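 Flag-tagged full-length Keap1 was preincubated with compound (3-fold series) for 2.25 h at 37 °C in Tris pH 8.0/MgCl2/NaCl/BSA/DTT/CHAPS. Biotin-Avi-NRF2 (added at 2.5 nM) was then bound for 1.25 h at 4 °C. Eu-streptavidin/anti-Flag-APC TR-FRET (665/615 nm) was read after 1 h at RT, and pIC50 came from a four-parameter fit.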
A general note: TR-FRET usually uses a lanthanide donor and a delayed reading to cut background.

T2 sequence (Q14145 whole entry): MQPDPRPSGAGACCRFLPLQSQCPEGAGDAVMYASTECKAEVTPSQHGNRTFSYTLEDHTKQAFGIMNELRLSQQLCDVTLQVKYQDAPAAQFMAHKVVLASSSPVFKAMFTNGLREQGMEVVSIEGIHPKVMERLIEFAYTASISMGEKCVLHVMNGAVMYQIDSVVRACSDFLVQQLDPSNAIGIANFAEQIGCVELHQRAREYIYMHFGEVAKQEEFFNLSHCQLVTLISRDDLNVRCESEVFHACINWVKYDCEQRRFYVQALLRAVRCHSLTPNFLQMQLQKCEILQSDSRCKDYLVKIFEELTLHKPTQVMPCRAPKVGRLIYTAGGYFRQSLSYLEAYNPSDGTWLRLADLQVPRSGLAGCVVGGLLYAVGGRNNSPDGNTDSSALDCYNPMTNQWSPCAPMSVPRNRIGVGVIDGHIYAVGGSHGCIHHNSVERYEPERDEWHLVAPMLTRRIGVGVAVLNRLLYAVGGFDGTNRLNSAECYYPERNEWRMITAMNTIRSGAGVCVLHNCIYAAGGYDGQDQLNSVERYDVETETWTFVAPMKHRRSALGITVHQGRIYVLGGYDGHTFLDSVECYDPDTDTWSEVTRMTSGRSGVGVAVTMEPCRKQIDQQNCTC

Turning to `C[C@H](Oc1cccc(-c2cccc(-n3ncc(C(=O)O)c3[C@H]3C[C@H]3c3cn(C)nn3)c2)c1)C1CCCCC1` (racemic) [Example 101, 1-(3′-((S)-1-cyclohexylethoxy)-[1,1′-biphenyl]-3-yl)-5-(cis-2-(1-methyl-1H-1,2,3-triazol-4-yl)cyclopropyl)-1H-pyrazole-4-carboxylic Acid], the 50% inhibitory concentration (IC50) is greater than 10000 nM in assay [1] and 1000 to 10000 nM in assay [3]. In assay [2] (BEAS-2B, 48 h), the EC50 is 100 to 1000 nM.
As for `C[C@H](Oc1cccc(-c2cccc(-n3ncc(C(=O)O)c3[C@@H]3C[C@H]3CCCO)c2)c1)C1CCCCC1` (racemic) [Example 102, 1-(3′-((S)-1-Cyclohexylethoxy)-[1,1′-biphenyl]-3-yl)-5-(trans-2-(3-hydroxypropyl)cyclopropyl)-1H-pyrazole-4-carboxylic Acid], the IC50 in assay [1] and in assay [3] was 1000 to 10000 nM throughout. The EC50 in assay [2] fell in the range of 100 to 1000 nM.
With `C[C@H](Oc1cccc(-c2cccc(-n3ncc(C(=O)O)c3[C@@H]3C[C@H]3c3cnn(C)c3)c2)c1)C1CCCCC1` (racemic) [Example 103, 1-(3′-((S)-1-cyclohexylethoxy)-[1,1′-biphenyl]-3-yl)-5-(trans-2-(1-methyl-1H-pyrazol-4-yl)cyclopropyl)-1H-pyrazole-4-carboxylic Acid], the IC50 in assay [1] and in assay [3] was 1000 to 10000 nM each time. The EC50 in assay [2] lay in the range of 100 to 1000 nM.
With `Cn1cc([C@@H]2C[C@H]2c2c(C(=O)O)cnn2-c2cccc(-c3cccc(/C=C/C4CCCCC4)c3)c2)nn1` (racemic) [Example 113, rac-1-(3′-((E)-2-Cyclohexylvinyl)-[1,1′-biphenyl]-3-yl)-5-(trans-2-(1-methyl-1H-1,2,3-triazol-4-yl)cyclopropyl)-1H-pyrazole-4-carboxylic Acid], the IC50 in assay [1] and in assay [3] was 100 to 1000 nM in each case. Besides, the EC50 in assay [2] is 10 to 100 nM.
As for `Cn1cc([C@@H]2C[C@H]2c2c(C(=O)O)cnn2-c2cccc(-c3cccc(CCC4CCCCC4)c3)c2)nn1` (racemic) [Example 114, rac-1-(3′-(2-Cyclohexylethyl)-[1,1′-biphenyl]-3-yl)-5-(-2-(1-methyl-1H-1,2,3-triazol-4-yl)cyclopropyl)-1H-pyrazole-4-carboxylic Acid], the IC50 lay within 100 to 1000 nM in assay [1] and 10 to 100 nM in assay [3]. Besides, in assay [2], the EC50 was 10 to 100 nM.
On to `CCC[C@@H]1CCCCN1C(=O)c1cccc(-c2cccc(-n3ncc(C(=O)O)c3[C@@H]3C[C@H]3c3cc(C)no3)c2)c1F` (racemic) [Example 117, 1-(2′-fluoro-3′-((R)-2-propylpiperidine-1-carbonyl)-[1,1′-biphenyl]-3-yl)-5-(trans-2-(3-methylisoxazol-5-yl)cyclopropyl)-1H-pyrazole-4-carboxylic Acid], for which the results for the IC50 in assay [1] and in assay [3] were 10 to 100 nM and less than 10 nM, respectively. Besides, the EC50 in assay [2] fell in the range of 10 to 100 nM.
Turning to `CCC1COc2ccccc2CN1Cc1cccc(-c2cccc(-n3ncc(C(=O)O)c3[C@H]3C[C@@H]3c3cn(C)nn3)c2)c1` (mixture of isomers) [Example 118, 1-(3′-((3-Ethyl-2,3-dihydrobenzo[f][1,4]oxazepin-4(5H)-yl)methyl)-[1,1′-biphenyl]-3-yl)-5-((1,2-trans)-2-(1-methyl-1H-1,2,3-triazol-4-yl)cyclopropyl)-1H-pyrazole-4-carboxylic Acid], the IC50 is 10 to 100 nM in assay [1] and less than 10 nM in assay [3]. In assay [2], the EC50 is 100 to 1000 nM.
The matching figures for `CCC1c2ccccc2OCCN1Cc1cccc(-c2cccc(-n3ncc(C(=O)O)c3[C@H]3C[C@@H]3c3cn(C)nn3)c2)c1` (mixture of isomers) [Example 123, 1-(3′-((5-Ethyl-2,3-dihydrobenzo[f][1,4]oxazepin-4(5H)-yl)methyl)-[1,1′-biphenyl]-3-yl)-5-((1,2-trans)-2-(1-methyl-1H-1,2,3-triazol-4-yl)cyclopropyl)-1H-pyrazole-4-carboxylic Acid]: 10 to 100 nM, 10 to 100 nM and 10 to 100 nM.
